US8754040B2, “Cyclic peptide compound, method for producing same, anti-infective agent, antibiotic-containing fraction, antibiotic, method for producing antibiotic, antibiotic-producing microorganism, and antibiotic produced by same” (priority 2010, dated 2014)
In brackets after ≈: the same amount, converted by molar mass. Positions of bridges follow the written chain, without caps; N, C: chain ends. Non-standard residues stand in square brackets, D forms with d. Residues, ends and D or L forms follow the SMILES beside them. *: point of attachment. Hexanoyl(3-OH,5-Me) = CC(C)CC(O)CC(=O)*; dNMeF = CN[C@H](Cc1ccccc1)C(=O)O

Key:
[1] = test system: Staphylococcus aureus (MRSA3)
Description: (§1) Antibacterial activity of the antibiotic-substance-containing fraction at each fractionation stage from a culture produced from RH2180-5 and that of the antibiotic substance obtained therefrom by separation and purification thereof can be evaluated by MIC. […] For example, it is done with a broth microdilution method based on CLSI (formerly NCCLS: National Committee for Clinical Laboratory Standards).
(§2) Antibacterial spectrum of the RH2180-5 Peak 5 Substance to various bacteria including MRSA and VRE was studied. In addition, influence of chemical resistance was also studied. For study of the latter, Staphylococcus aureus and Enterococcus faecalis were selected, wherein measurement of MIC value of each peak substance was made by a broth microdilution method based on CLSI (formerly NCCLS: National Committee for Clinical Laboratory Standards) as to Staphylococcus aureus not showing resistance to a chemical (hereinafter abbreviated as “MSSA 1”) and two kinds of MRSA showing resistance to many chemicals including methicillin (MRSA 3 and MRSA 4; see Table 3 for resistive chemicals) for Staphylococcus aureus; and as to Enterococcus faecalis not showing resistance to a chemical (hereinafter abbreviated as “EF 1”) and showing resistance to vancomycin (hereinafter abbreviated as “VRE”) for Enterococcus faecalis.
(§3) Test microorganisms of Staphylococcus aureus and Enterococcus faecalis, the same as Test Example 1, were selected; and measurement of MIC value of each peak substance was made by a broth microdilution method based on CLSI (formerly NCCLS: National Committee for Clinical Laboratory Standards) as to MSSA 1 and EF 1, and MRSA 3, MRSA 4, and VRE, the same as Test Example 1.
(§4) Antibacterial spectrum of the foregoing RH2180-5 Peak 5 Substance to various microorganisms including MRSA and VRE was studied. Each MIC value for the case added with 10% blood serum and for the case not added with the same was measured by a broth microdilution method based on CLSI (formerly NCCLS: National Committee for Clinical Laboratory Standards).

[2] = test system: Staphylococcus aureus (MSSA1); conditions: MSSA1
Description: as §1, §2, §3, §4

[3] = test system: Enterococcus faecalis (EF1)
Description: as §1, §2, §3, §4

[4] = test system: Enterococcus faecalis (VRE)
Description: as §1, §2, §3, §4

[5] = test system: Staphylococcus aureus (MRSA4)
Description: as §1, §2, §3, §4

Staphylococcus aureus [6] = format: cell-based
Description: A soil taken from various places was suspended in a physiological saline solution, and then the supernatant thereof was applied on a GA medium and a HV medium; and after incubation at 30° C., grown bacteria was separated and then cultured in an YME medium, a SGM medium, or a CDY medium at 30° C. for 5 days. Equal amount of acetone was added thereinto; and after they were suspended and centrifugally separated, the resulting supernatant was evaporated. The residue thus resulted was diluted with a physiological saline solution, and then the antibacterial activity thereof to Staphylococcus aureus was evaluated by MIC with a broth microdilution method. As a result, antibacterial activity was found in culture supernatant of 3487 strains out of 14346 strains.

Staphylococcus aureus [7] = experiment: silkworm Staphylococcus aureus infection model (therapeutic effect); format: in vivo, silkworm (larva of Bombyx mori); conditions: purification stages, Table 2
Description: In the present invention too, a first screening to narrow down effective strains from several tens of thousands of extraordinary large numbers of strains may be done by any method as far as the antibacterial activity can be evaluated with the said method; and thus, for example, by referring to MIC, test bodies showing the antibacterial activity to Staphylococcus aureus in culture supernatant of each strain may be picked up. This is because strains not showing the antibacterial activity at all are not in the scope of examination. Any method capable of evaluating the antibacterial activity may be used; but a method with which a strain recognized to show, with referring to MIC, the antibacterial activity to Staphylococcus aureus in culture supernatant of various test strains is picked up is preferable. […]
Strains recognized to show the therapeutic effect in the silkworm Staphylococcus aureus infection model are further subjected to various separation and purification treatments wherein the therapeutic effect is evaluated in each operation by using the silkworm Staphylococcus aureus infection model. […]

Staphylococcus aureus [8] = experiment: survived cell numbers (CFU) of Staphylococcus aureus after drug addition; format: cell-based
Description: To CA-Mueller Hinton Broth medium were taken 1.8×10^8 Staphylococcus aureus, and then the foregoing RH2180-5 Peak 5 Substance (25 μg/mL), vancomycin (VM, 5 μg/mL), and gentamicin (GM, 2.5 μg/mL) were added thereinto; and then, survived cell numbers after 15 minutes, 30 minutes, 60 minutes, and 120 minutes were obtained as CFU (colony forming unit/mL).

[9] = test system: Smith strain of Staphylococcus aureus; experiment: mouse Staphylococcus aureus infection model (therapeutic effect); format: in vivo, mouse (ICR female); conditions: Staphylococcus aureus, ip
Description: Smith strain of Staphylococcus aureus was suspended in 7% mucin+0.2 mM ferric ammonium citrate, and 6.2×10^6 (20×LD50) thereof was administered into the peritoneal cavity of 5 mice per group (ICR female of four weeks of age). Each drug was injected hypodermically 2 hours after administration of the bacterium by the method shown below.
Similarly, ED50 of vancomycin to the mouse model used this time was studied. […] Here, ED50 values were obtained by the probit method.

Row | Compound | MIC [1] | MIC [2] | MIC [3] | MIC [4] | MIC [5] | further results
1 | CC[C@H](C)[C@@H]1NC(=O)[C@@H](Cc2c[nH]c3ccccc23)NC(=O)[C@@H](CCC(N)=O)NC(=O)[C@H](CCC(=O)O)NC(=O)[C@@H](CCCNC(=N)N)NC(=O)[C@H](CC(C)C)NC(=O)[C@@H](Cc2ccccc2)NC(=O)CNC(=O)[C@H](CO)NC(=O)[C@@H](CCCNC(=N)N)NC(=O)[C@@H](NC(=O)CC(O)CCCC(C)C)[C@@H](C)OC(=O)[C@H]([C@@H](C)O)NC1=O (single isomer, unassigned) [Peak P3] | 25 µg/mL (≈ 15.3 µM) | 25 µg/mL (≈ 15.3 µM) | 50 µg/mL (≈ 30.6 µM) | 50 µg/mL (≈ 30.6 µM) | 25 µg/mL (≈ 15.3 µM) | 
2 | CC[C@H](C)[C@@H]1NC(=O)[C@@H](Cc2c[nH]c3ccccc23)NC(=O)[C@@H](CCC(N)=O)NC(=O)[C@H](CCC(=O)O)NC(=O)[C@@H](CCCNC(=N)N)NC(=O)[C@H](CC(C)C)NC(=O)[C@@H](Cc2ccccc2)NC(=O)CNC(=O)[C@H](CO)NC(=O)[C@@H](CCCNC(=N)N)NC(=O)[C@@H](NC(=O)CC(O)CCCC(C)C)[C@@H](C)OC(=O)[C@H]([C@@H](C)O)NC1=O (single isomer, unassigned) [Peak P4] | 25.0 µg/mL (≈ 15.3 µM) | 12.5 µg/mL (≈ 7.66 µM) | 50 µg/mL (≈ 30.6 µM) | 25 µg/mL (≈ 15.3 µM) | 12.5 µg/mL (≈ 7.66 µM) | 
3 | CC[C@H](C)[C@@H]1NC(=O)[C@@H](Cc2c[nH]c3ccccc23)NC(=O)[C@@H](CCC(N)=O)NC(=O)[C@H](CCC(=O)O)NC(=O)[C@@H](CCCNC(=N)N)NC(=O)[C@H](CC(C)C)NC(=O)[C@@H](Cc2ccccc2)N(C)C(=O)CNC(=O)[C@H](CO)NC(=O)[C@@H](CCCNC(=N)N)NC(=O)[C@@H](NC(=O)CC(O)CCC(C)C)[C@@H](C)OC(=O)[C@H]([C@@H](C)O)NC1=O (single isomer, unassigned) [Peak P7] | 12.5 µg/mL (≈ 7.66 µM) | 12.5 µg/mL (≈ 7.66 µM) | 50 µg/mL (≈ 30.6 µM) | 25 µg/mL (≈ 15.3 µM) | 12.5 µg/mL (≈ 7.66 µM) | 
4 | CC[C@H](C)[C@@H]1NC(=O)[C@@H](Cc2c[nH]c3ccccc23)NC(=O)[C@@H](CCC(N)=O)NC(=O)[C@H](CCC(=O)O)NC(=O)[C@@H](CCCNC(=N)N)NC(=O)[C@H](CC(C)C)NC(=O)[C@@H](Cc2ccccc2)N(C)C(=O)CNC(=O)[C@H](CO)NC(=O)[C@@H](CCCNC(=N)N)NC(=O)[C@@H](NC(=O)CC(O)CCCC(C)C)[C@@H](C)OC(=O)[C@H]([C@@H](C)O)NC1=O (single isomer, unassigned) [Peak P8] | 12.5 µg/mL (≈ 7.59 µM) | 12.5 µg/mL (≈ 7.59 µM) | 50 µg/mL (≈ 30.4 µM) | 25 µg/mL (≈ 15.2 µM) | 12.5 µg/mL (≈ 7.59 µM) | 
5 | CC[C@H](C)[C@@H]1NC(=O)[C@@H](Cc2c[nH]c3ccccc23)NC(=O)[C@@H](CCC(N)=O)NC(=O)[C@H](CCC(=O)O)NC(=O)[C@@H](CCCNC(=N)N)NC(=O)[C@H](CC(C)C)NC(=O)[C@@H](Cc2ccccc2)N(C)C(=O)CNC(=O)[C@H](CO)NC(=O)[C@@H](CCCNC(=N)N)NC(=O)[C@@H](NC(=O)CC(O)CCCC(C)C)[C@@H](C)OC(=O)[C@H]([C@@H](C)O)NC1=O (single isomer, unassigned) [Peak P9] |  |  | 12.5 µg/mL (≈ 7.59 µM) | 12.5 µg/mL (≈ 7.59 µM) |  | MIC (Staphylococcus aureus [6]): 5 µg/mL (≈ 3.04 µM); ED50 (Staphylococcus aureus [7]): 0.3 μg/g-larva
6 | CC(C)CC(O)CC(=O)N[C@@H]1C(=O)N[C@H](CCCNC(=N)N)C(=O)N[C@@H](CO)C(=O)NCC(=O)N(C)[C@H](Cc2ccccc2)C(=O)N[C@@H](CC(C)C)C(=O)N[C@H](CCCNC(=N)N)C(=O)N[C@@H](CCC(=O)O)C(=O)N[C@H](CCC(N)=O)C(=O)N[C@H](Cc2c[nH]c3ccccc23)C(=O)N[C@@H](C(C)C)C(=O)N[C@@H]([C@@H](C)O)C(=O)O[C@@H]1C (stereo partly drawn) [Peak P2] ({Hexanoyl(3-OH,5-Me)}-T[dR]SG[dNMeF]L[dR]E[dQ][dW]VT; ester 1-C) | 12.5 µg/mL (≈ 7.79 µM) | 12.5 µg/mL (≈ 7.79 µM) | 50 µg/mL (≈ 31.2 µM) | 50 µg/mL (≈ 31.2 µM) | 6.3 µg/mL (≈ 3.93 µM) | 
7 | CN[C@H](CC(C)C)C(=O)N[C@H]1C(=O)N[C@@H](CC(N)=O)C(=O)N[C@H]2C(=O)N[C@H]3C(=O)N[C@H](C(=O)N[C@H](C(=O)O)c4cc(O)cc(O)c4-c4cc3ccc4O)[C@H](O)c3ccc(c(Cl)c3)Oc3cc2cc(c3O[C@@H]2O[C@H](CO)[C@@H](O)[C@H](O)[C@H]2O[C@H]2C[C@](C)(N)[C@H](O)[C@H](C)O2)Oc2ccc(cc2Cl)[C@H]1O [Vancomycin] |  |  |  |  |  | CFU/ml of S. aureus (Staphylococcus aureus [8]; 5 μg/ml, 15 minutes): 8.5 × 10^7 CFU/ml; CFU/ml of S. aureus (Staphylococcus aureus [8]; 5 μg/ml, 30 minutes): 4.9 × 10^7 CFU/ml; CFU/ml of S. aureus (Staphylococcus aureus [8]; 5 μg/ml, 60 minutes): 6.8 × 10^7 CFU/ml; CFU/ml of S. aureus (Staphylococcus aureus [8]; 5 μg/ml, 120 minutes): 3.4 × 10^7 CFU/ml; ED50 [9]: 1.6 mg/kg
8 | Gentamicin [GM] |  |  |  |  |  | CFU/ml of S. aureus (Staphylococcus aureus [8]; 2.5 μg/ml, 15 minutes): 2.6 × 10^7 CFU/ml; CFU/ml of S. aureus (Staphylococcus aureus [8]; 2.5 μg/ml, 30 minutes): 7.6 × 10^5 CFU/ml; CFU/ml of S. aureus (Staphylococcus aureus [8]; 2.5 μg/ml, 60 minutes): 1.6 × 10^5 CFU/ml; CFU/ml of S. aureus (Staphylococcus aureus [8]; 2.5 μg/ml, 120 minutes): 4.0 × 10^5 CFU/ml
